Several values for one entry are separate records, joined by “and”; a condition that tells them apart may be missing. Equal entries are not always repeated.
Tests used:
[1] = tested on: adults with plaque psoriasis; experiment: Long-term extension study (PSOARING 3): adverse events; assay type: in vivo, human
Excerpt: Endpoints: Incidence, frequency, and nature of AEs, adverse events of special interest (AESIs), and serious adverse events (SAEs), Change over time in clinical laboratory tests and frequency of clinically significant abnormal test results, Change over time in vital signs and frequency of clinically significant abnormal results, Local Tolerability Scale (LTS) scores by severity summarized by visit.
Safety assessments included AEs, AESIs, SAEs, local (application site) tolerability, clinical laboratory tests, vital signs, physical examinations, and Investigator assessed LTS. Efficacy assessments included a 5 point static PGA (0 [clear], 1 [almost clear], 2 [mild], 3 [moderate], 4 [severe]), % BSA affected, the PASI, and subject reported DLQI.

[2] = tested on: adults with plaque psoriasis; experiment: Long-term extension study (PSOARING 3): patient-reported and investigator-assessed Local Tolerability Scale; assay type: in vivo, human; details: all anatomic regions incl. sensitive areas; 40 weeks
Procedure: Tolerability is defined as the local tolerability using a patient-reported 5-point scale for burning/stinging and itching, and an investigator-assessed 5-point scale for dryness, erythema, and peeling.
Tolerability was assessed subjectively via subject and objectively via Investigator throughout the 40 weeks of the study. The patient-reported local tolerability scale utilized for self-reported tolerability assessment is shown in Table 20, while the investigator-assessed local tolerability scale utilized is shown in Table 21.

[3] = Maximal use study with serial PK sampling: plasma concentrations; assay type: in vivo, human; details: between Days 1 and 29
Excerpt: (FIG. 2). This decline is further supported by serial PK data collected from previous clinical studies over 28 days of dosing and over 21 days of dosing.

[4] = Preclinical repeat-dose systemic exposure; assay type: in vivo
Excerpt: The reason for the decrease in plasma concentrations over time is unknown. Without wishing to be bound by theory, as the skin heals, there may be less penetration of the drug through the stratum corneum and into the systemic circulation since the barrier is restored.

[5] = tested on: mild to severe plaque psoriasis; experiment: Treat-to-target pooled analysis of the PSOARING trials; assay type: in vivo, human
Excerpt: In addition to a % BSA of ≤1.0% and PASI75, pooled analyses explored more aggressive targets, including the proportion of patients with % BSA of ≤0.5%, or an absolute PASI score of ≤1, ≤2 or ≤3. […] Safety analyses are based on all patients who received tapinarof in the PSOARING trials.

[6] = tested on: adults with mild to severe plaque psoriasis; experiment: PSOARING 1 & 2 12-week pivotal phase 3 trials; assay type: in vivo, human; details: Week 12
Procedure: All secondary endpoints were met, with statistical significance. […] Here, we present further analyses of the DLQI results, including an evaluation of correlations between the DLQI and clinical efficacy as assessed by PGA and Psoriasis Area and Severity Index (PASI) scores in PSOARING 1 & 2.
The DLQI is a 10-item scale where each item rates impact on quality of life (QoL) on a 4-point scale from 0 (not at all) to 3 (very much); lower scores indicate higher QoL. Efficacy was evaluated using PGA and PASI. Spearman rank correlations were used to evaluate correlations between changes from baseline in efficacy and changes from baseline in QoL at Week 12. Analyses used observed cases and were based on the intention-to-treat population.

[7] = tested on: plaque psoriasis; experiment: 12-week phase 2b trial in psoriasis; assay type: in vivo, human; details: cream 1%; 12-week treatment
Excerpt: As mentioned, tapinarof is a novel therapeutic aryl hydrocarbon receptor modulating agent (TAMA) in clinical development for the topical treatment of psoriasis and atopic dermatitis. […] AhR modulates T cell responses both through intrinsic control of T cell subset differentiation and via controlling the function of antigen presenting cells. In addition, AhR signaling promotes the conversion of Th17 cells to type 1 regulatory T cells. Aberrant immune responses underpin the pathogenesis of both PsO and AD, and the wide expression of AhR in immune cells makes it an attractive target given the essential role of AhR in regulating inflammatory responses and skin homeostasis. […] These clinical data support the role of AhR in skin immune homeostasis. Given the multitude of AhR-dependent immunoregulatory mechanisms, AhR is an attractive target for novel immunotherapies with the potential to extend therapeutic efficacy following treatment discontinuation; this may provide a unique clinical benefit to patients.
Treatment-emergent adverse events (TEAEs) were reported with a higher frequency in the tapinarof groups than in the vehicle groups. […]

[8] = final analysis, Tapinarof→Tapinarof
[9] = final analysis, Vehicle→Tapinarof

CC(C)c1c(O)cc(/C=C/c2ccccc2)cc1O [Tapinarof, 3,5-Dihydroxy-4-isopropyl-trans-stilbene]
TEAE incidence: contact dermatitis ([1]; final analysis): 5.5% | TEAE incidence: folliculitis ([1]; final analysis): 22.7% | TEAE incidence: upper respiratory tract infection ([1]; final analysis): 4.7% | discontinuation rate due to contact dermatitis ([1]; final analysis): 1.4% | discontinuation rate due to folliculitis ([1]; final analysis): 1.2% | Study discontinuation due to AESI: Dermatitis contact ([1]; final analysis, Overall): 11 (1.4) n (%) | Study discontinuation due to AESI: Folliculitis ([1]; final analysis, Overall): 9 (1.2) n (%) | Study discontinuation due to AESI: Headache ([1]; final analysis, Overall): 0 n (%) | Study discontinuation due to TEAEs ([1]; final analysis, Overall): 41 (5.4) n (%) | Treatment-emergent AESI: Dermatitis contact ([1]; final analysis, Overall): 45 (5.9) n (%) | Treatment-emergent AESI: Folliculitis ([1]; final analysis, Overall): 183 (24.0) n (%) | Treatment-emergent AESI: Headache ([1]; final analysis, Overall): 15 (2.0) n (%) | Study discontinuation due to AESI: Dermatitis contact [1, 8]: 7 (1.4) n (%) | Study discontinuation due to AESI: Folliculitis [1, 8]: 6 (1.2) n (%) | Study discontinuation due to AESI: Headache [1, 8]: 0 n (%) | Study discontinuation due to TEAEs [1, 8]: 26 (5.1) n (%) | Treatment-emergent AESI: Dermatitis contact [1, 8]: 24 (4.7) n (%) | Treatment-emergent AESI: Folliculitis [1, 8]: 124 (24.4) n (%) | Treatment-emergent AESI: Headache [1, 8]: 10 (2.0) n (%) | Study discontinuation due to AESI: Dermatitis contact [1, 9]: 4 (1.6) n (%) | Study discontinuation due to AESI: Folliculitis [1, 9]: 3 (1.2) n (%) | Study discontinuation due to AESI: Headache [1, 9]: 0 n (%) | Study discontinuation due to TEAEs [1, 9]: 15 (5.9) n (%) | Treatment-emergent AESI: Dermatitis contact [1, 9]: 21 (8.2) n (%) | Treatment-emergent AESI: Folliculitis [1, 9]: 59 (23.1) n (%) | Treatment-emergent AESI: Headache [1, 9]: 5 (2.0) n (%) | study discontinuation rate due to contact dermatitis ([1]; interim): 1.4% | study discontinuation rate due to folliculitis ([1]; interim): 1.2% | Premature discontinuation due to AEs ([1]; interim, Overall): 5.8% | Premature discontinuation due to AEs ([1]; interim, Tapinarof (Pivotal) group): 5.7% | Premature discontinuation due to AEs ([1]; interim, Vehicle (Pivotal) group): 5.9% | local tolerability (patient and investigator assessments) [2]: well-tolerated | decline in plasma concentrations [3]: 10 fold | systemic exposures with repeat dosing compared to single doses ([4]; minipigs): no changes in systemic exposures | systemic exposures with repeat dosing compared to single doses ([4]; rats): no changes in systemic exposures | KM estimated median time to target % BSA≤0.5% ([5]; 915 patients, baseline PGA≥2): 199 days | mean time to target PASI≤3 ([5]; 915 patients, baseline PGA≥2): 58 days | median time to target % BSA≤1.0% ([5]; 915 patients, baseline PGA≥2): 120 days | median time to target PASI≤1 ([5]; 915 patients, baseline PGA≥2): 185 days | median time to target PASI≤2 ([5]; 915 patients, baseline PGA≥2): 87 days | patients who achieved % BSA≤0.5% ([5]; 915 patients, baseline PGA≥2): 49.7% | patients who achieved % BSA≤1.0% ([5]; 915 patients, baseline PGA≥2): 61.3% and 61% | patients who achieved PASI≤1 ([5]; 915 patients, baseline PGA≥2): 50.3% | patients who achieved PASI≤2 ([5]; 915 patients, baseline PGA≥2): 66.9% and 67% | patients who achieved PASI≤3 ([5]; 915 patients, baseline PGA≥2): 75.0% | patients who achieved ≤1% BSA affected ([5]; within ˜3 months): 40% | PGA response (PGA 0 or 1 and ≥2-grade improvement from baseline) ([6]; PSOARING 1): 35.4% | mean change in DLQI from baseline ([6]; PSOARING 1): ~5.0 | patients who achieved a DLQI of 0 or 1 ([6]; PSOARING 1): 47.4% | PGA response (PGA 0 or 1 and ≥2-grade improvement from baseline) ([6]; PSOARING 2): 40.2% | mean change in DLQI from baseline ([6]; PSOARING 2): ~4.7 | patients who achieved a DLQI of 0 or 1 ([6]; PSOARING 2): 44.9% | time efficacy was maintained after treatment cessation [7]: 4 weeks
